According to publication PMC10518255, “A first-in-class pan-lysyl oxidase inhibitor impairs stromal remodeling and enhances gemcitabine response and survival in pancreatic cancer” (Nature Cancer, 2023):
Where “and” joins values, the source holds several entries; their conditions need not be identical. Identical values can stand only once.

Key:
KPC PDAC tumors = experiment: Necrosis determined by H&E in end-point KPC tumors; assay type: in vivo; details: KPC tumours at endpoint; one value per mouse, 8 mice per cohort scored (Extended Data 6J)
Procedure: All tissues or matrices were fixed in 10% buffered formalin and embedded in paraffin. The 4-μm sections of samples were deparaffinized with xylene and rehydrated in graded ethanol washes. H&E staining and counterstaining were performed on a Leica autostainer.
Extended Data Fig. 6 PXS-5505 in combination with gemcitabine in a KPC model. a. Quantification of proliferating cells (Ki67 positive nuclear staining) in KPC tumors at end point, treated as indicated. 5 fields of view (500 μm × 500 μm) per mouse and 10 mice per cohort were scored. […] Scale bars = 100 μm b. Quantification of percent coverage of αSMA positive staining in KPC tumors at end point, treated as indicated. 3 fields of view (1000 μm × 1000 μm) per mouse and 10 mice per cohort were scored. […] Scale bars = 100 μm c. Quantification of percent coverage of PDGFR-ß positive staining in KPC tumors at end point, treated as indicated. 3 fields of view (1000 μm × 1000 μm) per mouse and 10 mice per cohort were scored. […] Scale bars = 100 μm d. Quantification of pMLC2 positive staining in stromal regions of KPC tumors at end point, treated as indicated. 3 fields of view (500 μm × 500 μm) per mouse and 10 mice per cohort were scored. […] Quantification of tumor vasculature (CD31 positive staining) in KPC tumors at end point, treated as indicated. 3 fields of view (1000 μm × 1000 μm) per mouse and 10 mice per cohort were scored. […]

CD31 = experiment: Immunohistochemistry of end-point KPC tumors: tumor vasculature; assay type: in vivo, mouse; details: for Quantification of tumour vasculature (CD31 positive staining): Extended Data 6E, KPC tumours at endpoint, individual FOV
Procedure: (§1) All tissues or matrices, including patient TMAs, were fixed in 10% buffered formalin and embedded in paraffin. The 4-μm sections of samples were deparaffinized with xylene and rehydrated in graded ethanol washes. For immunohistochemistry, Bond Dewax Solution (AR9222) was used. Antigen retrieval was performed using Bond RX H2(30) protocol: HIER 30 min ER1 (citrate pH 6) OR ER2 (EDTA pH 9) at 100 °C. Slides were quenched in BOND Polymer Refine Detection (Leica Biosystems DS9800). […] Slides were digitized on an Aperio slide scanner and representative areas per tumor acquired and analyzed by researchers blinded to the conditions of the experiment.
(§2) Extended Data Fig. 6 PXS-5505 in combination with gemcitabine in a KPC model. a. Quantification of proliferating cells (Ki67 positive nuclear staining) in KPC tumors at end point, treated as indicated. 5 fields of view (500 μm × 500 μm) per mouse and 10 mice per cohort were scored. […] Quantification of percent coverage of αSMA positive staining in KPC tumors at end point, treated as indicated. 3 fields of view (1000 μm × 1000 μm) per mouse and 10 mice per cohort were scored. […] Quantification of percent coverage of PDGFR-ß positive staining in KPC tumors at end point, treated as indicated. 3 fields of view (1000 μm × 1000 μm) per mouse and 10 mice per cohort were scored. […] Quantification of pMLC2 positive staining in stromal regions of KPC tumors at end point, treated as indicated. 3 fields of view (500 μm × 500 μm) per mouse and 10 mice per cohort were scored. […] Quantification of tumor vasculature (CD31 positive staining) in KPC tumors at end point, treated as indicated. 3 fields of view (1000 μm × 1000 μm) per mouse and 10 mice per cohort were scored. […] Quantification of STAT3 activation (pSTAT3 positive nuclear staining) in KPC tumors at end point, treated as indicated. 3 fields of view (1000 μm × 1000 μm) per mouse and 5 mice per cohort were scored. […] Scale bars = 100 μm. g Quantification of macrophage infiltration (F4/80 positive staining) in KPC tumors at end point, treated as indicated. […]

pSTAT3 = experiment: Immunohistochemistry of end-point KPC tumors: STAT3 activation; assay type: in vivo, mouse; details: for Quantification of STAT3 activation (pSTAT3 positive nuclear staining): Extended Data 6F, KPC tumours at endpoint, individual FOV
Procedure: as §1, §2

| Structure (SMILES) | necrosis determined by H&E (KPC PDAC tumors) | Quantification of tumour vasculature (CD31 positive staining) (CD31) | CD31 positivity (CD31; KPC tumors at end point) | Quantification of STAT3 activation (pSTAT3 positive nuclear staining) (pSTAT3) | pSTAT3-positive nuclear staining (pSTAT3; KPC tumors at end point) |
| --- | --- | --- | --- | --- | --- |
| Nc1ccn([C@@H]2O[C@H](CO)[C@@H](O)C2(F)F)c(=O)n1 [Gem, gemcitabine] | 0 and 7.986 and 6.976 and 4.928 | 0.7299 and 0.7671 and 1.094 and 0.1238 and 0.9491 and 1.4885 and 2.0289 and 0.3988 and 1.306 and 1.1528 and 0.8514 and 0.5685 and 1.3159 and 1.5073 and 0.7452 and 2.699 and 3.9605 and 1.2028 and 1.6599 and 0.7292 and 1.2066 and 0.7182 and 1.9396 and 0.8792 and 0.4356 and 0.528 and 0.6666 and 0.9682 and 1.0035 and 1.0817 | moderately reduce CD31 positivity | 1.773 and 0.7075 and 2.095 and 2.515 and 2.91 and 1.454 and 7.421 and 2.089 and 1.705 and 5.289 and 6.71 and 3.256 and 6.948 and 7.388 and 6.1144 | significantly increased levels of pSTAT3-positive staining |
| Cl.Cl.NC/C=C(\F)CS(=O)(=O)c1cccc2cccnc12.O [PXS-5505, (Z)-3-fluoro-4-(quinolin-8-ylsulfonyl)but-2-en-1-amine dihydrochloride monohydrate] | 0 and 2.201 and 15.496 and 22.429 and 2.215 | 1.4669 and 1.052 and 0.7167 and 1.5204 and 1.7208 and 1.2357 and 2.5692 and 2.5978 and 2.6637 and 1.5089 and 2.7227 and 2.2335 and 3.0895 and 2.1825 and 1.7906 and 0.381 and 0.3483 and 0.8882 and 1.0908 and 1.998 and 0.3729 and 1.0662 and 0.7486 and 0.544 and 1.3597 and 1.732 and 1.5892 and 0.9619 and 1.2706 and 1.8307 | – | 2.225 and 1.368 and 3.504 and 0.042 and 0 (2×) and 3.991 and 1.153 and 0.6262 and 11.8493 and 3.81 and 4.532 and 0.05376 | – |
